Test system: HEK293 cells that express an HTT exon containing 17 glutamine repeats (HTT17Q-mCherry)
Test: Huntington's Disease (HD) model: protein aggregates (puncta) per cell in HEK293H cells transfected with HTT17Q-mCherry
Details: 6 h; for Effectiveness compared to MAL1-271 (Less/Similar/More) / Effectiveness compared to the MAL1-271 positive control: 10 μM; for Effectiveness compared to MAL1-271 (Less/Similar/More): blunting formation of toxic aggregates; for Effect on aggregate suppression compared to the MAL1-271 positive control: Example 1, FIG. 2, 10 μM compound; for Effectiveness compared to the MAL1-271 positive control: Example 2
Protocol: Cells were stained for confocal microscope imaging with 4′,6-diamidino-2-phenylindole (DAPI), a fluorescent dye with high affinity to adenine-thymine rich DNA regions. A bright spot detection tool was used to identify and quantify the number of protein aggregates (“dots”) per cell.
Biological Assays: For HD assays, HEK293H cells were grown in DMEM (Sigma-Aldrich, Saint Louis, MO) supplemented with 10% fetal bovine serum (GE Healthcare Hyclone) and 1% penicillin/streptomycin (Thermo Fisher Scientific, Waltham, MA) at 37° C. and at a 5% CO2 atmosphere. Cells were seeded at 250,000 cells/plate in Poly-D-Lysine Coated 35 mm MatTek dishes (P35GC-1.5-10-C, MatTek Corporation, Ashland, MA). After 24 h growth, a total of 4 μg of mCherry tagged-polyglutamine-expanded (17-polyQ-expanded) huntingtin (HTT) was introduced using Lipofectamine 2000 (Invitrogen, Thermo Fisher Scientific) according to the manufacturer's instructions. […] The following day, cells were treated with vehicle (DMSO) as control or with 10 μM of the examined compounds for 6 h. The cells were then washed with PBS and fixed in 4% formaldehyde for 15 min at room temperature. Finally, cells were stained with DAPI (1:250 in PBS) for 4 h and maintained in PBS for confocal microscope imaging.
Complete volumes of cells were acquired at 0.5-μm steps, and volumes were reconstructed and analyzed using Nikon's NIS-Elements software (Nikon Instrument, Melville, NY). Bright spot detection tool was used to identify and quantify the number of protein aggregates (“dots”) per cell. A non-parametric Kruskal-Wallis test analysis was performed using Prism software (GraphPad, La Jolla, CA). Statistically significant differences between control (DMSO) and compound treated samples are indicated by asterisks in figure. To obtain representative images from this experiment, maximum intensity projections of 0.5-μm steps though the entire cell were generated using Nikon's NIS-Elements software.
Cells were stained for confocal microscope imaging with 4′,6-diamidino-2-phenylindole (DAPI) and bright spot detection tool was used to identify and quantify the number of protein aggregates (“dots”) per cell.

SMILES: CCOC(=O)C1=CN(Cc2ccc(C(=O)NO)cc2)S(=O)(=O)N(C)C1c1ccc(Cl)cc1Cl (single isomer, unassigned; (+)) [(+)-951_66, (+)-Ethyl 3-(2,4-dichlorophenyl)-6-(4-(hydroxycarbamoyl)benzyl)-2-methyl-3,6-dihydro-2H-1,2,6-thiadiazine-4-carboxylate 1,1-dioxide]
- Effectiveness compared to MAL1-271 (Less/Similar/More): Less

SMILES: CCOC(=O)C1=CN(Cc2ccc(C(=O)NO)cc2)S(=O)(=O)N(C)C1c1ccc(Cl)cc1Cl (single isomer, unassigned; (-)) [(−)-951_67, (−)-Ethyl 3-(2,4-dichlorophenyl)-6-(4-(hydroxycarbamoyl)benzyl)-2-methyl-3,6-dihydro-2H-1,2,6-thiadiazine-4-carboxylate 1,1-dioxide]
- Effectiveness compared to MAL1-271 (Less/Similar/More): Similar

SMILES: CCOC(=O)C1=CN(CCCC(=O)OC)S(=O)(=O)NC1c1ccc(Cl)cc1Cl (stereo not shown) [Compound 5g, Ethyl 3-(2,4-dichlorophenyl)-6-(4-methoxy-4-oxobutyl)-3,6-dihydro-2H-1,2,6-thiadiazine-4-carboxylate 1,1-dioxide]
- Effect on aggregate suppression compared to the MAL1-271 positive control: less effective

SMILES: CCOC(=O)C1=CN(Cc2ccc(CO)cc2)S(=O)(=O)NC1c1ccc(Cl)cc1Cl (stereo not shown) [Compound 5h, Ethyl 3-(2,4-dichlorophenyl)-6-(4-(hydroxymethyl)benzyl)-3,6-dihydro-2H-1,2,6-thiadiazine-4-carboxylate 1,1-dioxide]
- Effect on aggregate suppression compared to the MAL1-271 positive control: less effective

SMILES: CCOC(=O)C1=CN(C(=O)OC(C)(C)C)S(=O)(=O)N(Cc2ccc(C(=O)OC(C)(C)C)cc2)C1c1ccc(Cl)cc1Cl (stereo not shown) [Compound 6i, 2-(tert-Butyl) 4-ethyl 6-(4-(tert-butoxycarbonyl)benzyl)-5-(2,4-dichlorophenyl)-5,6-dihydro-2H-1,2,6-thiadiazine-2,4-dicarboxylate 1,1-dioxide]
- Effect on aggregate suppression compared to the MAL1-271 positive control: less effective

SMILES: CCOC(=O)C1=CN(Cc2ccc(C(=O)O)cc2)S(=O)(=O)NC1c1ccc(Cl)cc1Cl (stereo not shown) [Compound 7h, 4-((5-(2,4-Dichlorophenyl)-4-(ethoxycarbonyl)-1,1-dioxido-5,6-dihydro-2H-1,2,6-thiadiazin-2-yl)methyl)benzoic acid]
- Effect on aggregate suppression compared to the MAL1-271 positive control: less effective

SMILES: O=C(O)CCCN1C=C(C(=O)O)C(c2ccc(Cl)cc2Cl)NS1(=O)=O (stereo not shown) [Compound 9g, 6-(3-Carboxypropyl)-3-(2,4-dichlorophenyl)-3,6-dihydro-2H-1,2,6-thiadiazine-4-carboxylic acid 1,1-dioxide]
- Effect on aggregate suppression compared to the MAL1-271 positive control: less effective

SMILES: COC(=O)CCCN1C=C(C(=O)OCc2ccccc2)C(c2ccc(Cl)cc2Cl)NS1(=O)=O (stereo not shown) [Compound 18g, Benzyl 3-(2,4-dichlorophenyl)-6-(4-methoxy-4-oxobutyl)-3,6-dihydro-2H-1,2,6-thiadiazine-4-carboxylate 1,1-dioxide]
- Effect on aggregate suppression compared to the MAL1-271 positive control: less effective

SMILES: CCOC(=O)C1=CN(Cc2ccc(C(=O)NO)cc2)S(=O)(=O)N(C)C1c1ccc(Cl)cc1Cl (stereo not shown) [Compound 930_62, Ethyl 3-(2,4-dichlorophenyl)-6-(4-(hydroxycarbamoyl)benzyl)-2-methyl-3,6-dihydro-2H-1,2,6-thiadiazine-4-carboxylate 1,1-dioxide]
- Effectiveness compared to MAL1-271 (Less/Similar/More): More
- Effectiveness compared to the MAL1-271 positive control: more effective

SMILES: CCOC(=O)C1=CN(Cc2ccc(C(=O)NO)cc2)S(=O)(=O)N(CC2CC2)C1c1ccc(Cl)cc1Cl (stereo not shown) [Compound 930_63, Ethyl 2-(cyclopropylmethyl)-3-(2,4-dichlorophenyl)-6-(4-(hydroxycarbamoyl)benzyl)-3,6-dihydro-2H-1,2,6-thiadiazine-4-carboxylate 1,1-dioxide]
- Effectiveness compared to MAL1-271 (Less/Similar/More): More
- Effectiveness compared to the MAL1-271 positive control: more effective

SMILES: O=C(O)CCCN1C=C(C(=O)OCc2ccc(Cl)cc2Cl)C(c2ccc(Cl)cc2Cl)NS1(=O)=O (stereo not shown) [Compound 959_30]
- Effectiveness compared to MAL1-271 (Less/Similar/More): Similar

From US12600705B2, “Heat shock protein modulators and anti-Huntington disease therapeutic agents” (UNIVERSITY OF PITTSBURGH-OF THE COMMONWEALTH SYSTEM OF …, priority 2020, dated 2026)
